The subject of assay [1] is orchidectomized rats. Nature of the assay: Testosterone induced prostate / seminal vesicle growth in delayed ORX rat model. Format: in vivo. From the text:
Orchidectomized (ORX) and sham-operated Wistar male rats were used (orchidectomized at 8 weeks of age and allowed to waste for 4 weeks). […] Rats were randomized and placed into treatment groups (n=6) based on body weight. Route of administration for all groups except testosterone enanthate (TE was given sub-cutaneously) was oral. At the end of 2 weeks of daily rats were euthanized, weighed & tissue harvested. Levator ani, prostates, and seminal vesicles were collected from each animal. Results are plotted as means±SE.

The test system of assay [2] is LnCAP cells. Nature of the assay: LnCAP gene expression. The format is cell-based. The following applies: Homo sapiens.
Setting [3] is: ORX + TE, 1 mg/kg/d (control group itself).

Where two headings read alike, the source gives them in different places.

With `CCCCCCC(=O)O[C@H]1CC[C@H]2[C@@H]3CCC4=CC(=O)CC[C@]4(C)[C@H]3CC[C@]12C` [TE, Testosterone Enanthate, reference compound], in assay [1] (setting [3]), the “prostate weights, Abs(Dif)-LSD vs ORX + TE control” value is reported as −0.15 and the “seminal vesicle wet weights, Abs(Dif)-LSD vs ORX + TE control” value is given as −0.52. Also, in assay [1] (ORX rat, Testosterone 1 mg/k/d alone for 2 weeks), the “prostate weight and seminal vesical weight” value is “increase in prostate weight and seminal vesical weight”.

Consider `C[C@]1(O)CC[C@H]2[C@@H]3CCC4=CC(=O)CCC4=C3C=C[C@@]21C` [R1881], for which the EC50 – broadly, the concentration that produces a half-maximal response – in assay [2] (read-out: LnCAP Gene Expression EC50 (nM) AR) is 0.035 nM; in assay [2] (read-out: LnCAP Gene Expression EC50 (nM) CLUSTERIN) it was 0.37 nM; in assay [2] (read-out: LnCAP Gene Expression EC50 (nM) PSA) it was 0.034 nM.

These data come from patent US20180185347A1, “TETRAHYDROCYCLOPENTA[B]INDOLE COMPOUNDS AND PHOSPHODIESTERASE INHIBITORS FOR THE TREATMENT OF THE SIGNS AND SYMPTOMS OF BHP” (Transition Therapeutics (Ireland 2) Limited, priority 2016, published 2018).
